Tested on: murine splenocytes
Assay: Test of lymphocyte proliferation: proliferation of murine splenocytes (tritiated thymidine incorporation)
Assay type: cell-based, Bal b/c mice
Details: for Proliferation of murine splenocytes, mitogen Con A 2.5 μg/ml (cpm ± DS) / Proliferation of murine splenocytes, mitogen LPS 10 μg/ml (cpm ± DS) / Proliferation of murine splenocytes, mitogen PHA 50 μg/ml (cpm ± DS) / Proliferation of murine splenocytes, mitogen a CD3 20 μg/ml (cpm ± DS): 72 h incubation
Experimental: Proliferation of Murine Splenocytes. Material and Methods
Test of Lymphocyte Proliferation
Culture medium: DMEM+penicillin 50 UI/ml+streptomycin 50 µg/ml+glutamine 2 mM+10% foetal calf serum (complete medium) (FLOW).
Bal b/c mice were used, male, aged 6-8 weeks (IFFA-CREDO).
The cell “pellet” is resuspended in complete medium at a concentration of 4×10^6 cells/ml
In a dish with 96 flat-bottom wells, seriated dilutions are made of the mitogen problem sample with or without “lactone” in a volume of […] in complete medium to which […] 2ME have been added. All the determinations are made in triplicate.
100 μl of the cell suspension are then added, leaving a final volume of 200 μl.
The dish is incubated in a stove at 37° C., 5% CO2 for 66 h.
Following that incubation period, 1 μCi of tritiated thymidine is added to each well.
The dish is again incubated for 6 h.
Once that new incubation period has ended, the dish is processed in a Skatron Harvester, using special Wathman filter paper for this.
The cpm are determined in a liquid scintillation counter.
Negative control: cells in the presence of complete culture medium.
Positive control: cells in the presence of some mitogen.
Arithmetic mean of cpm±standard deviation (1)
The statistical significance is determined by the Student t method.
The results are summarised in the following tables (the cpm are stated following a pulse of tritiated thymidine. The samples of splenocytes were cultivated for 72 h in the presence of mitogen and lactone at the stated concentrations).

[1] = murine splenocytes, 72 h with mitogen and lactone

What does the source list for `C=C1C(=O)OC(CCc2ccc(OC)cc2)C1C` (centres unmarked) [lactone]?
Proliferation of murine splenocytes, mitogen Con A 2.5 μg/ml (cpm ± DS) (Lactone 0.75 μg/ml): 131,523 cpm; Proliferation of murine splenocytes, mitogen Con A 2.5 μg/ml (cpm ± DS) (Lactone 1.5 μg/ml): 150,400 cpm; Proliferation of murine splenocytes, mitogen Con A 2.5 μg/ml (cpm ± DS) (Lactone 3 μg/ml): 92,600 ± 100 cpm; Proliferation of murine splenocytes, mitogen Con A 2.5 μg/ml (cpm ± DS) (Lactone 6 μg/ml): 78,200 ± 725 cpm; Proliferation of murine splenocytes, mitogen Con A 2.5 μg/ml (cpm ± DS) (Lactone 12 μg/ml): 370 ± 20 cpm; Proliferation of murine splenocytes, mitogen Con A 2.5 μg/ml (cpm ± DS) (Lactone 25 μg/ml): 244 ± 15 cpm; Proliferation of murine splenocytes, mitogen LPS 10 μg/ml (cpm ± DS) (Lactone 25 μg/ml): 3,200 ± 400 cpm; Proliferation of murine splenocytes, mitogen PHA 50 μg/ml (cpm ± DS) (Lactone 25 μg/ml): 21,000 cpm; Proliferation of murine splenocytes, mitogen a CD3 20 μg/ml (cpm ± DS) (Lactone 25 μg/ml): 5,600 ± 300 cpm; Proliferation of murine splenocytes, mitogen Con A 2.5 μg/ml (cpm ± DS) (Lactone 50 μg/ml): 190 ± 10 cpm; Proliferation of murine splenocytes, mitogen LPS 10 μg/ml (cpm ± DS) (Lactone 50 μg/ml): 2,700 ± 120 cpm; Proliferation of murine splenocytes, mitogen PHA 50 μg/ml (cpm ± DS) (Lactone 50 μg/ml): 19,000 cpm; Proliferation of murine splenocytes, mitogen a CD3 20 μg/ml (cpm ± DS) (Lactone 50 μg/ml): 1,235 ± 200 cpm; Proliferation of murine splenocytes, mitogen Con A 2.5 μg/ml (cpm ± DS) (Lactone 100 μg/ml): 147 ± 10 cpm; Proliferation of murine splenocytes, mitogen LPS 10 μg/ml (cpm ± DS) (Lactone 100 μg/ml): 614 ± 35 cpm; Proliferation of murine splenocytes, mitogen PHA 50 μg/ml (cpm ± DS) (Lactone 100 μg/ml): 19,500 cpm; Proliferation of murine splenocytes, mitogen a CD3 20 μg/ml (cpm ± DS) (Lactone 100 μg/ml): 285 ± 20 cpm; Inhibition of proliferation induced by ConA, antiCD3 and LPS [1]: clearly demonstrated its capacity for inhibiting proliferation; Inhibition of proliferation induced by PHA [1]: but not that induced by PHA; Proliferative effect per se on murine splenocytes (no mitogen, range 100-0.75 μg/ml, sample dissolved in DMSO at 40.0 mg/ml): No effect

From patent publication US6818780B2, “P-hydroxyphenyl propionic acid derivatives as antiproliferative agents” (Consejo Superior de Investigaciones Cientificas, priority 2000, dated 2004)
